Measured values from publication PMC11774580 (Chemosphere, 2024).
“And” between values parts separate entries of the source, which are not always exact repeats. Equal entries are not always repeated. Where two headings read alike, the source gives them in different places.

What was measured:
[1] = test system: MDCKII-LE cell monolayers; test: Apparent permeability; conditions: donor pH 7.4, receiver pH 7.4; 2 μM PFAS; 90 min; 0.4% BSA in receiver
[2] = molecular target: T1, human OAT4 (Homo sapiens, UniProt Q9NSA0); test: hOAT4 substrate; assay type: in vitro ADME; conditions: for hOAT4 uptake ratio, fold / hOAT4 uptake ratio, % above controls: 1 μM PFAS screen; for Transporter Uptake Ratio OAT4: 1 μM PFAS, threshold ≥ 2-fold; for Effect of probenecid co-treatment on hOAT4-mediated uptake: probenecid 1 mM
T1 sequence (Q9NSA0 1-550): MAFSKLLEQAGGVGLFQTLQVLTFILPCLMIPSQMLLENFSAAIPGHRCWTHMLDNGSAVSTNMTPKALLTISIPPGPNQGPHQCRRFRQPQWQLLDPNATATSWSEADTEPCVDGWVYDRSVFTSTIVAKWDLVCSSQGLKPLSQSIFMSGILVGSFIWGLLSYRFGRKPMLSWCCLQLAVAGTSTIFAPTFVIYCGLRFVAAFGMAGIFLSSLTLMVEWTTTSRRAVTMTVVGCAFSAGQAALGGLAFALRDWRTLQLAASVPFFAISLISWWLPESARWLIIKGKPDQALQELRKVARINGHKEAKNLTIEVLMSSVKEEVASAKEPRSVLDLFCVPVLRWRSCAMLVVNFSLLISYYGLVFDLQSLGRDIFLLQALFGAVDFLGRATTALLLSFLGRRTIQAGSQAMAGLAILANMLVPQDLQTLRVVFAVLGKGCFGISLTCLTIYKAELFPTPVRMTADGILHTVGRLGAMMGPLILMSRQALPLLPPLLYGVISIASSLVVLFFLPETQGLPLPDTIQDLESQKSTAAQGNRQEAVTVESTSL

[3] = molecular target: T2, human OAT3 (Homo sapiens, UniProt Q8TCC7); test: OAT3 inhibition assay
T2 sequence (Q8TCC7 1-542): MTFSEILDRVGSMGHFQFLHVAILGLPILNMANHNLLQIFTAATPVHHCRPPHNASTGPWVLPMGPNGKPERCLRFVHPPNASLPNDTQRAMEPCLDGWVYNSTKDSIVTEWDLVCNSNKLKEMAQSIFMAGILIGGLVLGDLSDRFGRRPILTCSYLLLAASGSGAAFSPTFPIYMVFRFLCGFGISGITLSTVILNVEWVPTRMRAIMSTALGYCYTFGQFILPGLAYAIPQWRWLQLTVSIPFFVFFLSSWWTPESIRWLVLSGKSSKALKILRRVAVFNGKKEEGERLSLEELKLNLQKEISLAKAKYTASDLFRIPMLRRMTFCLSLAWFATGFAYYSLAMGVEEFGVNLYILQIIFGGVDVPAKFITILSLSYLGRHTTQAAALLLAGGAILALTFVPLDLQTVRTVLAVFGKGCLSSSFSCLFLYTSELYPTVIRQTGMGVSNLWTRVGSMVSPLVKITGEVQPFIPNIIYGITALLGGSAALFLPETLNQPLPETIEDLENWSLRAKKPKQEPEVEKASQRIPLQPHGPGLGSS

[4] = molecular target: T2, human OAT3; test: hOAT3 substrate; conditions: for hOAT3 uptake ratio, fold higher than mock transfected controls / hOAT3 uptake ratio, % higher than mock transfectants: 1 μM PFAS screen; for Transporter Uptake Ratio OAT3: 1 μM PFAS, threshold ≥ 2-fold; for hOAT3-mediated uptake, fold: follow-up test, without probenecid; for Effect of probenecid cotreatment on hOAT3-mediated uptake: probenecid 1 mM
[5] = molecular target: T3, human OAT1 (Homo sapiens, UniProt Q4U2R8); test: hOAT1 substrate; conditions: for Transporter Uptake Ratio OAT1: 1 μM PFAS, threshold ≥ 2-fold; for hOAT-mediated uptake (Fig. 3A, OAT1), fold: follow-up test, without probenecid
T3 sequence (Q4U2R8 1-563): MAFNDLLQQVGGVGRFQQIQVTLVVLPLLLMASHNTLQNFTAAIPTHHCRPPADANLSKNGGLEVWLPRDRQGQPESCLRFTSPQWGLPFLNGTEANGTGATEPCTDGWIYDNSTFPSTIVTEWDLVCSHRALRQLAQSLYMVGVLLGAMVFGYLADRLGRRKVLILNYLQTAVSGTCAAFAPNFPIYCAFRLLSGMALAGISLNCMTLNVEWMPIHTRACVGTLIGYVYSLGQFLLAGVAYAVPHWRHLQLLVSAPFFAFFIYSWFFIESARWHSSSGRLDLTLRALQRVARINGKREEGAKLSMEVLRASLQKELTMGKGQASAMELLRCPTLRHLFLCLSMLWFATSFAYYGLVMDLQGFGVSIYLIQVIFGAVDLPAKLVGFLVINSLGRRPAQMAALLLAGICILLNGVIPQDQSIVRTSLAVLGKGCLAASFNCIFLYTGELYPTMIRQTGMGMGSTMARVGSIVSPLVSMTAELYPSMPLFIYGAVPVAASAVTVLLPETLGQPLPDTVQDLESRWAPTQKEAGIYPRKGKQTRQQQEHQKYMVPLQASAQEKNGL

[6] = molecular target: T3, human OAT1; test: OAT1 inhibition assay
[7] = read-out: IC50 hOAT3 inhibition, probe [3H]-ES 0.1 μM, 30 min pre-incubation

SMILES: O=S(=O)(O)CCC(F)(F)C(F)(F)C(F)(F)C(F)(F)C(F)(F)C(F)(F)F [6:2FTS, 6:2 fluorotelomer sulfonate]
- Ph 7.4 A-B Papp [1]: 0.71 ×10⁻⁶ cm/s
- hOAT4 uptake ratio, fold [2]: greater than 2 fold
- Transporter Uptake Ratio OAT4 [2]: + (denoted with a “+” to denote a threshold of ≥ 2-fold has been met and considered a substrate for the transporter)
- IC50 [3, 7]: 11.3 µM
- hOAT3 uptake ratio, fold higher than mock transfected controls [4]: 2.5–12 fold
- Transporter Uptake Ratio OAT3 [4]: + (denoted with a “+” to denote a threshold of ≥ 2-fold has been met and considered a substrate for the transporter)
- hOAT3-mediated uptake, fold [4]: 2.5–15 fold
- Transporter Uptake Ratio OAT1 [5]: + (denoted with a “+” to denote a threshold of ≥ 2-fold has been met and considered a substrate for the transporter)
- hOAT-mediated uptake (Fig. 3A, OAT1), fold [5]: ~ 4 fold

SMILES: O=C(O)C(F)(F)C(F)(F)C(F)(F)C(F)(F)C(F)(F)C(F)(F)C(F)(F)C(F)(F)C(F)(F)C(F)(F)F [PFUDA, perfluoroundecanoic acid]
- Ph 7.4 A-B Papp [1]: 11.56 ×10⁻⁶ cm/s

SMILES: O=S(=O)(O)C(F)(F)C(F)(F)C(F)(F)C(F)(F)C(F)(F)C(F)(F)F [PFHxS, perfluorohexane sulfonic acid]
- OAT4 substrate classification [2]: strong substrates
- hOAT4 uptake ratio, fold [2]: greater than 2 fold
- Transporter Uptake Ratio OAT4 [2]: + (denoted with a “+” to denote a threshold of ≥ 2-fold has been met and considered a substrate for the transporter)
- Fold difference in OAT4 uptake ratio between PFHxS and PFOS ([2]; PFHxS versus PFOS): ~ 2.5 fold
- Effect of probenecid co-treatment on hOAT4-mediated uptake [2]: not inhibited
- IC50 [3]: 10.3 µM
- hOAT3 uptake ratio, fold higher than mock transfected controls [4]: 2.5–12 fold
- Transporter Uptake Ratio OAT3 [4]: + (denoted with a “+” to denote a threshold of ≥ 2-fold has been met and considered a substrate for the transporter)
- hOAT3-mediated uptake, fold [4]: 2.5–15 fold
- Effect of probenecid cotreatment on hOAT3-mediated uptake [4]: markedly inhibited

SMILES: O=C(O)C(F)(F)C(F)(F)C(F)(F)C(F)(F)F [PFPA, perfluoropentanoic acid]
- Ph 7.4 A-B Papp [1]: 0.99 ×10⁻⁶ cm/s
- Effect of probenecid co-treatment on hOAT4-mediated uptake [2]: effectively inhibited
- hOAT3 uptake ratio, fold higher than mock transfected controls [4]: 2.5–12 fold
- Transporter Uptake Ratio OAT3 [4]: + (denoted with a “+” to denote a threshold of ≥ 2-fold has been met and considered a substrate for the transporter)
- hOAT3-mediated uptake, fold [4]: 2.5–15 fold
- Effect of probenecid cotreatment on hOAT3-mediated uptake [4]: markedly inhibited

SMILES: O=C(O)C(F)(F)C(F)(F)C(F)(F)C(F)(F)C(F)(F)C(F)(F)C(F)(F)F [PFOA, perfluorooctanoic acid]
- Ph 7.4 A-B Papp [1]: 1.46 ×10⁻⁶ cm/s
- IC50 [6]: 51.4 to 166 µM
- OAT4 substrate classification [2]: strong substrates
- hOAT4 uptake ratio, fold [2]: greater than 2 fold
- Transporter Uptake Ratio OAT4 [2]: + (denoted with a “+” to denote a threshold of ≥ 2-fold has been met and considered a substrate for the transporter)
- Effect of probenecid co-treatment on hOAT4-mediated uptake [2]: effectively inhibited
- IC50 [3]: 8.9 µM
- hOAT3 uptake ratio, fold higher than mock transfected controls [4]: 2.5–12 fold
- Transporter Uptake Ratio OAT3 [4]: + (denoted with a “+” to denote a threshold of ≥ 2-fold has been met and considered a substrate for the transporter)
- hOAT3-mediated uptake, fold [4]: 2.5–15 fold
- Effect of probenecid cotreatment on hOAT3-mediated uptake [4]: markedly inhibited
- hOAT1 uptake ratio, % higher than controls ([5]; 1 μM PFAS screen): 5–60%

SMILES: O=S(=O)(O)C(F)(F)C(F)(F)C(F)(F)C(F)(F)C(F)(F)C(F)(F)C(F)(F)C(F)(F)F [PFOS, perfluorooctane sulfonic acid]
- Ph 7.4 A-B Papp [1]: 14 ×10⁻⁶ cm/s and 14.04 ×10⁻⁶ cm/s
- OAT4 substrate classification [2]: relatively weak substrate
- hOAT4 uptake ratio, % above controls [2]: ~ 20%
- hOAT3 uptake ratio, % higher than mock transfectants [4]: 30–50%

SMILES: O=C(O)C(F)(F)C(F)(F)C(F)(F)C(F)(F)C(F)(F)F [PFHxA, perfluorohexanoic acid]
- Ph 7.4 A-B Papp [1]: 1.16 ×10⁻⁶ cm/s
- OAT4 substrate classification [2]: strong substrates
- hOAT4 uptake ratio, % above controls [2]: ~ 20%
- Transporter Uptake Ratio OAT4 [2]: + (denoted with a “+” to denote a threshold of ≥ 2-fold has been met and considered a substrate for the transporter)
- Effect of probenecid co-treatment on hOAT4-mediated uptake [2]: effectively inhibited
- hOAT3 uptake ratio, fold higher than mock transfected controls [4]: 2.5–12 fold
- Transporter Uptake Ratio OAT3 [4]: + (denoted with a “+” to denote a threshold of ≥ 2-fold has been met and considered a substrate for the transporter)
- hOAT3-mediated uptake, fold [4]: 2.5–15 fold
- Effect of probenecid cotreatment on hOAT3-mediated uptake [4]: markedly inhibited
- hOAT1 uptake ratio, fold higher than the control ([5]; 1 μM PFAS screen): ~ 2 fold
- Transporter Uptake Ratio OAT1 [5]: + (denoted with a “+” to denote a threshold of ≥ 2-fold has been met and considered a substrate for the transporter)
- hOAT-mediated uptake (Fig. 3A, OAT1), fold [5]: ~ 2 fold
- Effect of probenecid co-treatment on hOAT1-mediated uptake ([5]; probenecid 1 mM): markedly reduced

SMILES: O=C(O)C(F)(F)C(F)(F)C(F)(F)C(F)(F)C(F)(F)C(F)(F)C(F)(F)C(F)(F)F [PFNA, perfluorononanoic acid]
- Ph 7.4 A-B Papp [1]: 3.77 ×10⁻⁶ cm/s
- OAT4 substrate classification [2]: strong substrates
- hOAT4 uptake ratio, fold [2]: greater than 2 fold
- Transporter Uptake Ratio OAT4 [2]: + (denoted with a “+” to denote a threshold of ≥ 2-fold has been met and considered a substrate for the transporter)
- Effect of probenecid co-treatment on hOAT4-mediated uptake [2]: effectively inhibited
- IC50 [3, 7]: 9.8 µM
- hOAT3 uptake ratio, fold higher than mock transfected controls [4]: 2.5–12 fold
- Transporter Uptake Ratio OAT3 [4]: + (denoted with a “+” to denote a threshold of ≥ 2-fold has been met and considered a substrate for the transporter)
- hOAT3-mediated uptake, fold [4]: 2.5–15 fold
- Effect of probenecid cotreatment on hOAT3-mediated uptake [4]: markedly inhibited

SMILES: O=S(=O)(O)C(F)(F)C(F)(F)C(F)(F)C(F)(F)F [PFBS, Perfluorobutane sulfonic acid]
- Ph 7.4 A-B Papp [1]: 1.38 ×10⁻⁶ cm/s
- OAT4 substrate classification [2]: strong substrates
- hOAT4 uptake ratio, fold [2]: greater than 2 fold
- Transporter Uptake Ratio OAT4 [2]: + (denoted with a “+” to denote a threshold of ≥ 2-fold has been met and considered a substrate for the transporter)
- Effect of probenecid co-treatment on hOAT4-mediated uptake [2]: effectively inhibited
- hOAT3 uptake ratio, fold higher than mock transfected controls [4]: 2.5–12 fold
- Transporter Uptake Ratio OAT3 [4]: + (denoted with a “+” to denote a threshold of ≥ 2-fold has been met and considered a substrate for the transporter)
- hOAT3-mediated uptake, fold [4]: 2.5–15 fold
- Effect of probenecid cotreatment on hOAT3-mediated uptake [4]: markedly inhibited
- hOAT1 uptake ratio, % higher than controls ([5]; 1 μM PFAS screen): 5–60%

SMILES: O=C(O)C(F)(F)C(F)(F)C(F)(F)F [PFBA, Perfluorobutanoic acid]
- Ph 7.4 A-B Papp [1]: 0.93 ×10⁻⁶ cm/s
- Some level of inhibition against hOAT1 mediated transport [6]: the only exceptions
- Some level of inhibition against hOAT3 mediated transport [3]: the only exceptions
- hOAT3 substrate classification [4]: weak substrate
- hOAT3 uptake ratio, % higher than mock transfectants [4]: 30–50%
- hOAT3 uptake ratio ([4]; statistically significant, below 2-fold cut-off): 1.5

SMILES: O=C(O)C(F)(F)C(F)(F)C(F)(F)C(F)(F)C(F)(F)C(F)(F)C(F)(F)C(F)(F)C(F)(F)F [PFDA, perfluorodecanoic acid]
- Ph 7.4 A-B Papp [1]: 8.44 ×10⁻⁶ cm/s
- hOAT3 substrate classification [4]: weak substrate
- hOAT3 uptake ratio, % higher than mock transfectants [4]: 30–50%
